Measurements taken from patent US8309558B2, “Compounds for the treatment of hepatitis C” (Bristol-Myers Squibb Company, priority 2008, dated 2012).
pEC50, pIC50: −log10 of the molar value. Read-outs that look alike come from different tables or passages of the source.

Tests used:
[1] = biological target: T1, HCV NS5B RdRp genotype 1b (Hepatitis C virus genotype 1b, UniProt Q9WMX2); test: Standard HCV NS5B RdRp enzyme assay; format: biochemical; conditions: HCV NS5B RdRp genotype 1b, read-out: IC50
T1 construct: The protein was expressed with an 18 amino acid C-terminal truncation to enhance the solubility; made in house; host or cells: E. coli BL21(DE3), pET21a vector
How it was run: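 Radiometric SPA measuring 3H-UMP incorporation on polyA/biotin-oligo-dT12 (6 nM/180 nM), 0.29 μM total UTP. Enzyme: NS5B 1b lacking last 18 residues, 28 nM final, 30° C for 60 min in 20 mM Hepes pH 7.5, 2.5 mM MgCl2, 2% DMSO. IC50 from seven-point curves.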

HCV replicon cells = test: HCV replicon FRET / luciferase assay (96-well plates); format: cell-based; conditions: Hepatitis C virus, HCV replicon, read-out: EC50
How it was run: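 Percent activity is background-subtracted signal relative to untreated cell wells, with background taken from maximal protease-inhibitor wells. Cytotoxicity is Alamar blue fluorescence relative to controls. Replicon inhibition was read by NS3 FRET peptide cleavage (340/490 nm) or luciferase.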

T1 sequence (Q9WMX2 2420-2992): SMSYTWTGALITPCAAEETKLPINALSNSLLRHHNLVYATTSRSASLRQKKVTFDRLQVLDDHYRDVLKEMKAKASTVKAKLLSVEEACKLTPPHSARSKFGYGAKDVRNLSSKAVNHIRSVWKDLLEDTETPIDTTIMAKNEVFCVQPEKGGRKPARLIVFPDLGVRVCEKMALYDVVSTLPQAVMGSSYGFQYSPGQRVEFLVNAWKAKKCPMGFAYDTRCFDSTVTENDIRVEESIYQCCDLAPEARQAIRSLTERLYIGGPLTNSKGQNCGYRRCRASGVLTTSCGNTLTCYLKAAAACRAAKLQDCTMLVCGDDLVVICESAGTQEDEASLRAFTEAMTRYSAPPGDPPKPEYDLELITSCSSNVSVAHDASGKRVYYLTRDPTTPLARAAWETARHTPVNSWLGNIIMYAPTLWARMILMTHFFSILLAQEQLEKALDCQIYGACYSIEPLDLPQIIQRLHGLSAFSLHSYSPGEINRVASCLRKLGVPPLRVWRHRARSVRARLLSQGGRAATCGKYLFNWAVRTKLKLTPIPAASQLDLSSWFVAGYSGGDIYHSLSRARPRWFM

Row | Structure (SMILES) | pIC50 ([1]; Table 1a) | pEC50 (HCV replicon cells; Table 1a) | pIC50 ([1]; Table 1b) | pEC50 (HCV replicon cells; Table 1b)
1 | CNC(=O)c1c(-c2ccc(F)cc2)oc2ccc(-c3cccc(C(=O)NC(C)C)c3)cc12 | > 6.60 | > 6.60 |  | 
2 | CNC(=O)c1c(-c2ccc(F)cc2)oc2ccc(-c3cccc(C(=O)Nc4cccnc4)c3)cc12 | > 6.60 | > 6.60 |  | 
3 | CNC(=O)c1c(-c2ccc(F)cc2)oc2ccc(-c3cccc(C(=O)Nc4ccc(C)cn4)c3)cc12 | > 6.60 | > 6.60 |  | 
4 | CNC(=O)c1c(-c2ccc(F)cc2)oc2ccc(-c3cccc(C(=O)Nc4ccccn4)c3)cc12 | > 6.60 | > 6.60 |  | 
5 | CNC(=O)c1c(-c2ccc(F)cc2)oc2ccc(-c3cccc(C(=O)NC(C)c4ccc(F)cc4)c3)cc12 (stereo not drawn) | > 6.60 | > 6.60 |  | 
6 | CNC(=O)c1c(-c2ccc(F)cc2)oc2ccc(-c3cccc(C(=O)N[C@@H](C)c4ccc(F)cc4)c3)cc12 | > 6.60 | > 6.60 |  | 
7 | CNC(=O)c1c(-c2ccc(F)cc2)oc2ccc(-c3cccc(C(=O)N[C@H](C)c4ccc(F)cc4)c3)cc12 | > 6.60 | > 6.60 |  | 
8 | CNC(=O)c1c(-c2ccc(F)cc2)oc2ccc(-c3cccc(C(=O)NC(C)(C)c4ccc(F)cc4)c3)cc12 | > 6.60 | > 6.60 |  | 
9 | CNC(=O)c1c(-c2ccc(F)cc2)oc2ccc(-c3cccc(C(=O)NC(C)(C)c4ccccc4)c3)cc12 | > 6.60 | > 6.60 |  | 
10 | CNC(=O)c1c(-c2ccc(F)cc2)oc2ccc(-c3cccc(C(=O)Nc4ccncc4)c3)cc12 | > 6.60 | > 6.60 |  | 
11 | CNC(=O)c1c(-c2ccc(F)cc2)oc2ccc(-c3cccc(C(=O)Nc4ccccc4)c3)cc12 | > 6.60 | > 6.60 |  | 
12 | CNC(=O)c1c(-c2ccc(F)cc2)oc2ccc(-c3cccc(C(=O)Nc4cccc(C#N)c4)c3)cc12 | 6.00 to 6.60 | > 6.60 |  | 
13 | CNC(=O)c1c(-c2ccc(F)cc2)oc2ccc(-c3cccc(C(=O)Nc4cnccn4)c3)cc12 | > 6.60 | > 6.60 |  | 
14 | CNC(=O)c1c(-c2ccc(F)cc2)oc2ccc(-c3cccc(C(=O)Nc4ccc(OC)cc4)c3)cc12 | > 6.60 | > 6.60 |  | 
15 | CNC(=O)c1c(-c2ccc(F)cc2)oc2ccc(-c3ccc(Cl)c(C(=O)NC(C)(C)c4ccccc4)c3)cc12 | > 6.60 | > 6.60 |  | 
16 | CNC(=O)c1c(-c2ccc(F)cc2)oc2ccc(-c3cccc(C(=O)NC4(c5ccccc5)CCC4)c3)cc12 | > 6.60 | > 6.60 |  | 
17 | CNC(=O)c1c(-c2ccc(F)cc2)oc2ccc(-c3cc(C(=O)NCC(C)C)ccc3OC)cc12 | > 6.60 | > 6.60 |  | 
18 | CCCOc1ccc(C(=O)NCC(C)C)cc1-c1ccc2oc(-c3ccc(F)cc3)c(C(=O)NC)c2c1 |  |  | 5.00 to 6.00 | 6.00 to 6.60
19 | CNC(=O)c1c(-c2ccc(F)cc2)oc2ccc(-c3cc(C(=O)NCC(C)C)ccc3OCCC(C)C)cc12 |  |  | < 5.00 | 5.00 to 6.00
20 | CNC(=O)c1c(-c2ccc(F)cc2)oc2cc(N)c(-c3cc(C(=O)NCC(C)C)ccc3OC)cc12 |  |  | > 6.60 | > 6.60

Row | Structure (SMILES) | pIC50 ([1]; Table 1a) | pEC50 (HCV replicon cells; Table 1a) | pIC50 ([1]; Table 1b) | pEC50 (HCV replicon cells; Table 1b)
21 | CNC(=O)c1c(-c2ccc(F)cc2)oc2cc(NS(C)(=O)=O)c(-c3cc(C(=O)NC4(c5ccccc5)CC4)ccc3F)cc12 |  |  | > 6.60 | > 6.60
22 | CCC(NC(=O)c1ccc(F)c(-c2cc3c(C(=O)NC)c(-c4ccc(F)cc4)oc3cc2NS(C)(=O)=O)c1)c1ccccc1 (stereo not drawn) |  |  | > 6.60 | > 6.60
23 | CNC(=O)c1c(-c2ccc(F)cc2)oc2ccc(-c3cccc(C(=O)NC4(c5ccccc5)CC4)c3OC)cc12 |  |  | < 5.00 | < 5.00
24 | CNC(=O)c1c(-c2ccc(F)cc2)oc2ccc(-c3cc(C(=O)NC4(c5ccccc5Cl)CC4)ccc3Cl)cc12 |  |  | 6.00 to 6.60 | > 6.60
25 | CNC(=O)c1c(-c2ccc(F)cc2)oc2cc(N(C)S(C)(=O)=O)c(-c3cccc(C(=O)NC(C)(C)c4ccccc4)c3)cc12 |  |  | > 6.60 | > 6.60
26 | CCC(CC)(NC(=O)c1ccc(Cl)c(-c2ccc3oc(-c4ccc(F)cc4)c(C(=O)NC)c3c2)c1)c1ccccc1 |  |  | > 6.60 | > 6.60
27 | CNC(=O)c1c(-c2ccc(F)cc2)oc2cc(N)c(-c3cccc(C(=O)NCC(C)C)c3)cc12 |  |  | > 6.60 | > 6.60
28 | CNC(=O)c1c(-c2ccc(F)cc2)oc2ccc(-c3cc(C(=O)NCC(C)C)ccc3OCCOC)cc12 |  |  | 6.00 to 6.60 | > 6.60
29 | CNC(=O)c1c(-c2ccc(F)cc2)oc2cc(N(CCO)S(C)(=O)=O)c(-c3cccc(C(=O)NC(C)(C)C)c3)cc12 |  |  | > 6.60 | > 6.60
30 | CNC(=O)c1c(-c2ccc(F)cc2)oc2cc(N(CCO)S(C)(=O)=O)c(-c3cccc(C(=O)NC4(c5ccccn5)CC4)c3)cc12 |  |  | > 6.60 | > 6.60
31 | CNC(=O)c1c(-c2ccc(F)cc2)oc2cc(N(CCO)S(C)(=O)=O)c(-c3cccc(C(=O)NC4(c5ccccc5)CC4)c3)cc12 |  |  | > 6.60 | > 6.60
32 | CNC(=O)c1c(-c2ccc(F)cc2)oc2cc(N(CCO)S(C)(=O)=O)c(-c3cccc(C(=O)NC4(c5ccc(F)cc5)CC4)c3)cc12 |  |  | > 6.60 | > 6.60
33 | CNC(=O)c1c(-c2ccc(F)cc2)oc2cc(N(CCO)S(C)(=O)=O)c(-c3cccc(C(=O)NC(C)(C)c4ccc(F)cc4)c3)cc12 |  |  | > 6.60 | > 6.60
34 | CNC(=O)c1c(-c2ccc(F)cc2)oc2ccc(-c3cc(C(=O)N4CCC5(CC4)OCc4ccccc45)ccc3Cl)cc12 |  |  | 5.00 to 6.00 | 5.00 to 6.00
35 | CNC(=O)c1c(-c2ccc(F)cc2)oc2ccc(-c3cccc(C(=O)NC4(c5ccc(Cl)cc5)CC4)c3)cc12 |  |  | > 6.60 | > 6.60
36 | CNC(=O)c1c(-c2ccc(F)cc2)oc2ccc(-c3cccc(C(=O)NC(C)(C)c4ccc(Cl)cc4)c3)cc12 |  |  | > 6.60 | > 6.60
37 | CNC(=O)c1c(-c2ccc(F)cc2)oc2ccc(-c3cccc(C(=O)NC(C)(C)c4ccncc4)c3)cc12 |  |  | > 6.60 | > 6.60
38 | CNC(=O)c1c(-c2ccc(F)cc2)oc2ccc(-c3cc(C(=O)NCC(C)C)ccc3OCCc3ccc(O)cc3)cc12 |  |  | 6.00 to 6.60 | 6.00 to 6.60
39 | CNC(=O)c1c(-c2ccc(F)cc2)oc2ccc(-c3cc(C(=O)NCC(C)C)ccc3OCCCn3cccc3)cc12 |  |  | 5.00 to 6.00 | 6.00 to 6.60
40 | CNC(=O)c1c(-c2ccc(F)cc2)oc2ccc(-c3cc(C(=O)NCC(C)C)ccc3OCCc3ccc(Cl)cc3)cc12 |  |  | < 5.00 | < 5.00

Row | Structure (SMILES) | pIC50 ([1]; Table 1a) | pEC50 (HCV replicon cells; Table 1a) | pIC50 ([1]; Table 1b) | pEC50 (HCV replicon cells; Table 1b)
41 | CNC(=O)c1c(-c2ccc(F)cc2)oc2ccc(-c3cc(C(=O)NCC(C)C)ccc3OCC(N)=O)cc12 |  |  | > 6.60 | > 6.60
42 | CNC(=O)c1c(-c2ccc(F)cc2)oc2ccc(-c3cc(C(=O)NCC(C)C)ccc3OCCCN3CCOCC3)cc12 |  |  | > 6.60 | > 6.60
43 | CNC(=O)c1c(-c2ccc(F)cc2)oc2ccc(-c3cc(C(=O)NCC(C)C)ccc3OCCN3CCOCC3)cc12 |  |  | > 6.60 | > 6.60
44 | CNC(=O)c1c(-c2ccc(F)cc2)oc2ccc(-c3cc(C(=O)NCC(C)C)ccc3OCc3ccccn3)cc12 |  |  | > 6.60 | > 6.60
45 | CNC(=O)c1c(-c2ccc(F)cc2)oc2ccc(-c3cc(C(=O)NCC(C)C)ccc3OCCN3CCCC3)cc12 |  |  | > 6.60 | > 6.60
46 | CNC(=O)c1c(-c2ccc(F)cc2)oc2ccc(-c3cc(C(=O)NCC(C)C)ccc3OCCN3CCCCC3)cc12 |  |  | 6.00 to 6.60 | > 6.60
47 | CNC(=O)c1c(-c2ccc(F)cc2)oc2ccc(-c3cc(C(=O)NCC(C)C)ccc3OCCc3ccccn3)cc12 |  |  | 6.00 to 6.60 | > 6.60
48 | CNC(=O)c1c(-c2ccc(F)cc2)oc2ccc(-c3cc(C(=O)NCC(C)C)ccc3OCc3c[nH]c(C)n3)cc12 |  |  | > 6.60 | > 6.60
49 | CNC(=O)c1c(-c2ccc(F)cc2)oc2ccc(-c3cc(C(=O)NCC(C)C)ccc3OCc3ccc(C(F)(F)F)cn3)cc12 |  |  | < 5.00 | < 5.00
50 | CNC(=O)c1c(-c2ccc(F)cc2)oc2ccc(-c3cc(C(=O)NCC(C)C)ccc3OCc3c[nH]cn3)cc12 |  |  | > 6.60 | > 6.60
51 | CNC(=O)c1c(-c2ccc(F)cc2)oc2ccc(-c3cc(C(=O)NCC(C)C)ccc3OCc3cn(C)cn3)cc12 |  |  | 5.00 to 6.00 | 6.00 to 6.60
52 | CCCC#CCOc1ccc(C(=O)NCC(C)C)cc1-c1ccc2oc(-c3ccc(F)cc3)c(C(=O)NC)c2c1 |  |  | 5.00 to 6.00 | 5.00 to 6.00
53 | CNC(=O)c1c(-c2ccc(F)cc2)oc2ccc(-c3cc(C(=O)NCC(C)C)ccc3OCC(F)F)cc12 |  |  | 6.00 to 6.60 | > 6.60
54 | CNC(=O)c1c(-c2ccc(F)cc2)oc2ccc(-c3cc(C(=O)NCC(C)C)ccc3OCc3ccnc(Br)c3)cc12 |  |  | 6.00 to 6.60 | 6.00 to 6.60
55 | CNC(=O)c1c(-c2ccc(F)cc2)oc2ccc(-c3cc(C(=O)NCC(C)C)ccc3OCCO)cc12 |  |  | > 6.60 | > 6.60
56 | CNC(=O)c1c(-c2ccc(F)cc2)oc2ccc(-c3cc(C(=O)NCC(C)C)ccc3OCCc3c(C)n[nH]c3C)cc12 |  |  | > 6.60 | > 6.60
57 | CNC(=O)c1c(-c2ccc(F)cc2)oc2ccc(-c3cccc(C(=O)NC(C)(C)c4cccnc4)c3)cc12 |  |  | > 6.60 | > 6.60
58 | CNC(=O)c1c(-c2ccc(F)cc2)oc2cc(N(CCO)S(C)(=O)=O)c(-c3cc(C(=O)NC4(c5ccccc5)CC4)ccc3F)cc12 |  |  | > 6.60 | > 6.60
59 | CNC(=O)c1c(-c2ccc(F)cc2)oc2ccc(-c3cc(C(=O)NCC(C)C)ccc3OCCc3c[nH]c4ccccc34)cc12 |  |  | 5.00 to 6.00 | 5.00 to 6.00
60 | CNC(=O)c1c(-c2ccc(F)cc2)oc2ccc(-c3cc(C(=O)NCC(C)C)ccc3OCCCN3CCN(C)CC3)cc12 |  |  | > 6.60 | > 6.60
